Structures are written as SMILES.

This experiment addresses T1, BRD9-GFP (Homo sapiens, UniProt Q9H8M2).
T1 construct: CHYSEL (2A cis-acting hydrolase element) remnant after GFP; mCherry is split off as a separate protein (C); expressed in transfected cells; host or cells: HEK293A cells (Invitrogen R70507), lentiviral transduction with pLenti6-BRD9-GFP-CHYSEL-mCherry, blasticidin selection
T1 sequence (Q9H8M2 1-597): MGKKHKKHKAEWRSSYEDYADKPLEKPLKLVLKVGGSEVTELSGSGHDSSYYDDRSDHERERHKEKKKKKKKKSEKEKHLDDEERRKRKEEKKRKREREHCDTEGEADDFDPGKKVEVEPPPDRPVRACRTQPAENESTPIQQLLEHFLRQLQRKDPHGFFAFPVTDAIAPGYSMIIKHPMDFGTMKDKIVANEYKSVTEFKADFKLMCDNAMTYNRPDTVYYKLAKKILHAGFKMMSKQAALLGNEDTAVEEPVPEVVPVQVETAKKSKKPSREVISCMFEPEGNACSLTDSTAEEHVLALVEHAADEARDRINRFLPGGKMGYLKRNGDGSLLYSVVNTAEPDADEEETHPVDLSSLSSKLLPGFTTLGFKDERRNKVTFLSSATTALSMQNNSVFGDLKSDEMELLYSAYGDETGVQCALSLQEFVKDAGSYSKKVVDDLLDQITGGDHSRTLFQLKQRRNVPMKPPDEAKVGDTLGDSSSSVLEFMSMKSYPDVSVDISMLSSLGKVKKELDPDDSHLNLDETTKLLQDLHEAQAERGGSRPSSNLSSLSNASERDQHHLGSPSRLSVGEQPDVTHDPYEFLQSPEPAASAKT
Description: BRD9-GFP protein abundance flow cytometry assay in HEK293A cells. The experiment is classed as cell-based. The conditions noted are these: HEK293A-BRD9-GFP-CHYSEL-mCherry cells; for BRD9 Deg Amax %: 24 h, % protein remaining at the concentration at which maximum degradation is seen; for DC50: 24 h at 37° C., 10-point 1:3 dilution, concentration at which 50% maximal degradation was observed. In outline: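 HEK293A cells stably express bicistronic BRD9-GFP-CHYSEL-mCherry and received 24 h treatment at 37° C with a 10-point, 3-fold dilution series from […], in 0.1% DMSO and duplicate. Median GFP/mCherry ratio of 5,000 single cells by flow cytometry, normalized to mCherry-only cells (0%) and DMSO (100%), gave DC50 and Amax (% protein remaining).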
Background: Flow cytometry measures light scatter and fluorescence of single cells or particles in a stream.

As to `COc1cc(-c2cn(C)c(=O)c3cnccc23)c(OC)cc1CN1CC[C@@H](OC2CCN(CCn3cccc(CN4CCC(=O)NC4=O)c3=O)CC2)[C@H](F)C1` [Compound E39, 1-((1-(2-(4-(((3R,4R)-1-(2,5-Dimethoxy-4-(2-methyl-1-oxo-1,2-dihydro-2,7-naphthyridin-4-yl)benzyl)-3-fluoropiperidin-4-yl)oxy)piperidin-1-yl)ethyl)-2-oxo-1,2-dihydropyridin-3-yl)methyl)dihydropyrimidine-2,4(1H,3H)-dione], the “BRD9 Deg Amax %” value came to 14.60% and half-maximal degradation (DC50) was put at 4 nM.
For `COc1cc(-c2cn(C)c(=O)c3cnccc23)ccc1OC1CCN(CC2CCN(C(=O)c3cccc(N4CCC(=O)NC4=O)c3)CC2)CC1` [Compound A11, 1-(3-(4-((4-(2-Methoxy-4-(2-methyl-1-oxo-1,2-dihydro-2,7-naphthyridin-4-yl)phenoxy)piperidin-1-yl)methyl)piperidine-1-carbonyl)phenyl)dihydropyrimidine-2,4(1H,3H)-dione], the “BRD9 Deg Amax %” value was 19.45% and the DC50 came out at 12 nM.
Regarding `CCCCn1cc(-c2ccc(O[C@@H]3CCN(CC4CCN(C(=O)c5ccc(OC)c(N6CCC(=O)NC6=O)c5)CC4)C[C@H]3F)c(F)c2)c2ccncc2c1=O` [Compound E29, 1-(5-(4-(((3R,4R)-4-(4-(2-butyl-1-oxo-1,2-dihydro-2,7-naphthyridin-4-yl)-2-fluorophenoxy)-3-fluoropiperidin-1-yl)methyl)piperidine-1-carbonyl)-2-methoxyphenyl)dihydropyrimidine-2,4(1H,3H)-dione], the “BRD9 Deg Amax %” value is 19.48% and the DC50 came out at 1 nM.
On to `CCCn1cc(-c2cc(OC)c(CCN3CCC(OC4CCN(C(=O)c5ccc(Cl)c(N6CCC(=O)NC6=O)c5)CC4)CC3)c(OC)c2)c(C)c(C)c1=O` [Compound B2, 1-(2-Chloro-5-(4-(1-(4-(4,5-dimethyl-6-oxo-1-propyl-1,6-dihydropyridin-3-yl)-2,6-dimethoxyphenethyl)piperidin-4-yloxy)piperidine-1-carbonyl)phenyl)dihydropyrimidine-2,4(1H,3H)-dione], for which the “BRD9 Deg Amax %” value is 13.73% and half-maximal degradation (DC50) was put at 2 nM.
As for `COc1cc(-c2cn(C)c(=O)c3cnccc23)cc(OC)c1CN1CCC(OC2CCN(CCn3cccc(CN4CCC(=O)NC4=O)c3=O)CC2)CC1` [Compound C2, 1-((1-(2-(4-((1-(2,6-dimethoxy-4-(2-methyl-1-oxo-1,2-dihydro-2,7-naphthyridin-4-yl)benzyl)piperidin-4-yl)oxy)piperidin-1-yl)ethyl)-2-oxo-1,2-dihydropyridin-3-yl)methyl)dihydropyrimidine-2,4(1H,3H)-dione], the “BRD9 Deg Amax %” value turned out to be 11.95% and it took 29 nM to reach half-maximal degradation (DC50).
Taken in the same sequence, the figures for `COc1cc(-c2cn(C)c(=O)c3cnccc23)cc(OC)c1OC1CCN(CC2CCN(C(=O)c3ccc(Cl)c(N4CCC(=O)NC4=O)c3)CC2)CC1` [Compound A9, 1-(2-Chloro-5-(4-((4-(2,6-dimethoxy-4-(2-methyl-1-oxo-1,2-dihydro-2,7-naphthyridin-4-yl)phenoxy)piperidin-1-yl)methyl)piperidine-1-carbonyl)phenyl)dihydropyrimidine-2,4(1H,3H)-dione] were 20.62% and 2 nM.
Take `CCCCn1cc(-c2cc(OC)c(CN3CCC(OC4CCN(CCn5cccc(CN6CCC(=O)NC6=O)c5=O)CC4)CC3)cc2OC)c2ccncc2c1=O` [Compound D1, 1-((1-(2-(4-((1-(4-(2-butyl-1-oxo-1,2-dihydro-2,7-naphthyridin-4-yl)-2,5-dimethoxybenzyl)piperidin-4-yl)oxy)piperidin-1-yl)ethyl)-2-oxo-1,2-dihydropyridin-3-yl)methyl)dihydropyrimidine-2,4(1H,3H)-dione]: the “BRD9 Deg Amax %” value was 14.78% and half-maximal degradation (DC50) was put at 16 nM.
With `CCCCn1cc(-c2ccc(O[C@H]3CC[C@@H](OC4CCN(CCn5cccc(CN6CCC(=O)NC6=O)c5=O)CC4)CC3)cc2)c2ccncc2c1=O` [Compound E35, 1-((1-(2-(4-(((cis)-4-(4-(2-butyl-1-oxo-1,2-dihydro-2,7-naphthyridin-4-yl)phenoxy)cyclohexyl)oxy)piperidin-1-yl)ethyl)-2-oxo-1,2-dihydropyridin-3-yl)methyl)dihydropyrimidine-2,4(1H,3H)-dione], the “BRD9 Deg Amax %” value stood at 15.90% and the half-maximal degradation concentration (DC50) worked out at 6 nM.
With `COc1ccc(C(=O)N2CCC(CN3CCC(Oc4c(OC)cc(-c5cn(C)c(=O)c6cnccc56)cc4OC)CC3)CC2)cc1N1CCC(=O)NC1=O` [Compound A6, 1-(5-(4-((4-(2,6-Dimethoxy-4-(2-methyl-1-oxo-1,2-dihydro-2,7-naphthyridin-4-yl)phenoxy)piperidin-1-yl)methyl)piperidine-1-carbonyl)-2-methoxyphenyl)dihydropyrimidine-2,4(1H,3H)-dione], the “BRD9 Deg Amax %” value was 12.25% and the 50% degradation concentration (DC50) was found to be 3 nM.
Turning to `CCCCn1cc(-c2cc(OC)c(CCN3CCC(OC4CCN(CCn5cccc(CN6CCC(=O)NC6=O)c5=O)CC4)CC3)c(OC)c2)c2ccncc2c1=O` [Compound D4, 1-((1-(2-(4-((1-(4-(2-butyl-1-oxo-1,2-dihydro-2,7-naphthyridin-4-yl)-2,6-dimethoxyphenethyl)piperidin-4-yl)oxy)piperidin-1-yl)ethyl)-2-oxo-1,2-dihydropyridin-3-yl)methyl)dihydropyrimidine-2,4(1H,3H)-dione], the “BRD9 Deg Amax %” value came out at 16.34% and the DC50 was determined as 3 nM.
As to `CCCCn1cc(-c2ccc(OC3CCN(CC4CCN(C(=O)c5ccc(OC)c(N6CCC(=O)NC6=O)c5)CC4)CC3)c(F)c2)c2ccncc2c1=O` [Compound E34, 1-(5-(4-((4-(4-(2-butyl-1-oxo-1,2-dihydro-2,7-naphthyridin-4-yl)-2-fluorophenoxy)piperidin-1-yl)methyl)piperidine-1-carbonyl)-2-methoxyphenyl)dihydropyrimidine-2,4(1H,3H)-dione], the “BRD9 Deg Amax %” value is recorded as 13.08% and the DC50 turned out to be 2 nM.
`COc1cc(-c2cn(C)c(=O)c3cnccc23)ccc1OCC1CCN(CC2CCN(C(=O)c3ccc(OC)c(N4CCC(=O)NC4=O)c3)CC2)CC1` [Compound A5, 1-(2-Methoxy-5-(4-((4-((2-methoxy-4-(2-methyl-1-oxo-1,2-dihydro-2,7-naphthyridin-4-yl)phenoxy)methyl)piperidin-1-yl)methyl)piperidine-1-carbonyl)phenyl)dihydropyrimidine-2,4(1H,3H)-dione]: the “BRD9 Deg Amax %” value came out at 18.64% and the half-maximal degradation concentration (DC50) was determined as 19 nM.
Take `COc1cc(-c2cn(C)c(=O)c3cnccc23)cc(OC)c1CCN1CCC(OC2CCN(C(=O)COc3ccc(N4CCC(=O)NC4=O)cc3)CC2)CC1` [Compound A25, 1-(4-(2-(4-((1-(2,6-Dimethoxy-4-(2-methyl-1-oxo-1,2-dihydro-2,7-naphthyridin-4-yl)phenethyl)piperidin-4-yl)oxy)piperidin-1-yl)-2-oxoethoxy)phenyl)dihydropyrimidine-2,4(1H,3H)-dione]: the “BRD9 Deg Amax %” value is given as 18.22% and the half-maximal degradation concentration (DC50) stood at 10 nM.
Turning to `COc1cc(-c2cn(C)c(=O)c3cnccc23)cc(OC)c1CCN1CCC(OC2CCN(C(=O)c3cccc(N4CCC(=O)NC4=O)c3)CC2)CC1` [Compound A40, 1-(3-(4-((1-(2,6-Dimethoxy-4-(2-methyl-1-oxo-1,2-dihydro-2,7-naphthyridin-4-yl)phenethyl)piperidin-4-yl)oxy)piperidine-1-carbonyl)phenyl)dihydropyrimidine-2,4(1H,3H)-dione], the “BRD9 Deg Amax %” value worked out at 14.20% and the DC50 was found to be 4 nM.
As to `COc1cc(-c2cc(C)c(=O)n(C)c2)cc(OC)c1CN1CCC(OC2CCN(C(=O)COc3ccc(N4CCC(=O)NC4=O)cc3)CC2)CC1` [Compound A8, 1-(4-(2-(4-((1-(4-(1,5-Dimethyl-6-oxo-1,6-dihydropyridin-3-yl)-2,6-dimethoxybenzyl)piperidin-4-yl)oxy)piperidin-1-yl)-2-oxoethoxy)phenyl)dihydropyrimidine-2,4(1H,3H)-dione], the “BRD9 Deg Amax %” value is 16.25% and the DC50 was found to be 70 nM.
As to `CCCn1cc(-c2cc(F)c(CCN3CCC(OC4CCN(C(=O)c5ccc(OC)c(N6CCC(=O)NC6=O)c5)CC4)CC3)c(F)c2)c(C)c(C)c1=O` [Compound E12, 1-(5-(4-((1-(4-(4,5-dimethyl-6-oxo-1-propyl-1,6-dihydropyridin-3-yl)-2,6-difluorophenethyl)piperidin-4-yl)oxy)piperidine-1-carbonyl)-2 methoxyphenyl)dihydropyrimidine-2,4(1H,3H)-dione], the “BRD9 Deg Amax %” value was determined as 33.47% and the DC50 is 30 nM.

A word on the DC50: it is the midpoint of the concentration-degradation curve. Higher therefore signals degradation only at high concentration.

The record behind these values is US20220315578A1, “BRD9 BIFUNCTIONAL DEGRADERS AND THEIR METHODS OF USE” (NOVARTIS AG, priority 2019, published 2022).
